Reference: the Deep4Chem optical property database
Values joined by “and” are separate entries in the source; they are usually repeats but may differ in a detail not shown here. Identical values can stand only once.

Test: photoluminescence quantum yield (fraction); solvent given as SMILES

CCCCCCCN1C(=CC2=C([O-])C(=Cc3sc4ccccc4[n+]3CCCCCCC)C2=C(C#N)C#N)Sc2ccccc21
photoluminescence quantum yield (in C1COCCO1): 0.09 | photoluminescence quantum yield (in CCO): 0.14 | photoluminescence quantum yield (in CN(C)C=O): 0.14 | photoluminescence quantum yield (in ClC(Cl)Cl): 0.13

CC1=CC(C)=[N+]2C1=C(c1ccccc1)c1c(C)cc(/C=C/c3ccc(O)cc3)n1[B-]2(F)F
photoluminescence quantum yield (in O): 0.37

F[B-]1(F)OC(C#Cc2ccccc2)=C2CCc3ccccc3C2=[O+]1
photoluminescence quantum yield (in ClCCl): 0.83

Cc1ccc([C@@H]2C[C@](O)(c3ccccn3)C[C@](O)(c3ccccn3)[C@H]2C(=O)c2ccc(N(c3ccccc3)c3ccccc3)cc2)cc1
photoluminescence quantum yield (in C1CCOC1): 0.54 | photoluminescence quantum yield (in CC#N): 0.02 | photoluminescence quantum yield (in CCO): 0.01 | photoluminescence quantum yield (in CCOC(C)=O): 0.44 | photoluminescence quantum yield (in CN(C)C=O): 0.03 | photoluminescence quantum yield (in ClCCl): 0.27 | photoluminescence quantum yield (in c1ccccc1): 0.97

CCN(CC)c1ccc2c(c1)oc(=O)c1cc3c(-c4ccccc4)nn(-c4ccccc4)c3nc12
photoluminescence quantum yield (in C1CCCCC1): 0.31 | photoluminescence quantum yield (in CCOC(C)=O): 0.195 | photoluminescence quantum yield (in CN(C)C=O): 0.013 | photoluminescence quantum yield (in CO): 0.002 | photoluminescence quantum yield (in ClCCl): 0.24

Cc1ccc(/C2=C3N=C(C(c4ccccc4)=C/3c3ccccc3)/C(c3ccc(C)cc3)=c3\[nH]/c(c(-c4ccccc4)c3-c3ccccc3)=C(/c3ccc(C)cc3)C3=N/C(=C(/c4ccc(C)cc4)c4[nH]c2c(-c2ccccc2)c4-c2ccccc2)C(c2ccccc2)=C3c2ccccc2)cc1
photoluminescence quantum yield (in ClCCl): 0.008

COc1ccc(C2=C/C(=C\c3ccccc3)C(=O)O2)cc1OC
photoluminescence quantum yield (in C1COCCO1): 0.004

CCOC(=O)c1cc(C(=O)NCc2ccccc2)c2ccc(N(C)C)cc2n1
photoluminescence quantum yield (in CCO): 0.06

Cc1ccc(/C2=c3\cc/c(o3)=C(\c3ccc(C)cc3)c3ccc([nH]3)-c3ccc4n3[B-](F)(F)[N+]3=C(C=CC3=C4c3ccc[nH]3)c3ccc2[nH]3)cc1
photoluminescence quantum yield (in ClC(Cl)Cl): 0.12

CNCCCN1c2ccccc2CCc2ccccc21
photoluminescence quantum yield (in CC#N): 0.009 | photoluminescence quantum yield (in CO): 0.01 | photoluminescence quantum yield (in O): 0.012

Cn1c(-c2ccc(-c3nc(-c4ccccc4)c(-c4ccccc4)n3C)cc2)nc(-c2ccccc2)c1-c1ccccc1
photoluminescence quantum yield (in CC#N): 0.9 and 0.66

COC(=O)c1ccc(-c2ccc3c(c2)C(=O)c2cc(-c4ccc(C(=O)OC)cc4)ccc2-3)cc1
photoluminescence quantum yield (in C1CCOC1): 0.02

Cc1ccc2c(c1)c1cc(C)ccc1n2-c1cc(-c2nc(-c3ccccc3)nc(-c3ccccc3)n2)cc(-n2c3ccc(C)cc3c3cc(C)ccc32)c1-n1c2ccc(C)cc2c2cc(C)ccc21
photoluminescence quantum yield (in O=P(c1ccccc1)(c1ccccc1)c1ccccc1Oc1ccccc1P(=O)(c1ccccc1)c1ccccc1): 1

CCCCN(CCCC)c1ccc(C#Cc2cc(C#Cc3ccc(N(CCCC)CCCC)cc3)c(C#Cc3ccc(C#N)cc3)cc2C#Cc2ccc(C#N)cc2)cc1
photoluminescence quantum yield (in ClCCl): 0.35

Cc1cccc(C)c1Nc1ccc(/C=C/c2ccc3ccccc3c2)cc1
photoluminescence quantum yield (in CC#N): 0.08 | photoluminescence quantum yield (in CCCCCC): 0.2

CC(C)CN1C(=O)/C(=C/c2ccc([N+](=O)[O-])cc2)C=C1c1ccccc1
photoluminescence quantum yield (in C1COCCO1): 0.033

N#CC1=CC(Br)=CC(C#N)=P1(c1ccccc1)c1ccccc1
photoluminescence quantum yield (in ClC(Cl)Cl): 0.52

CCn1c(-c2ccc(-c3ccc4c(c3)C(C)(C)c3ccccc3-4)cc2)c(-c2ccc3ccccc3c2)c(-c2ccc3ccccc3c2)c1-c1ccc(-c2ccc3c(c2)C(C)(C)c2ccccc2-3)cc1
photoluminescence quantum yield (in CCOC(C)=O): 0.99

CC(C)(C)c1ccc(-n2c(-c3ccc(-c4ccc(N(c5ccccc5)c5ccccc5)cc4)cc3)nc3c4ccccc4c4ccccc4c32)cc1
photoluminescence quantum yield (in ClCCl): 1

CCOc1ccc2c(-c3nc(-c4ccccc4)no3)cc(=O)oc2c1
photoluminescence quantum yield (in CCO): 0.6 | photoluminescence quantum yield (in ClC(Cl)Cl): 0.31

CCOC(=O)c1ccc(C2=Cc3cc4ccccc4cc3P2(=O)c2ccccc2)cc1 (configuration not stated)
photoluminescence quantum yield (in ClCCl): 0.54

COC(=O)C1=C(C(=O)OC)C2(c3ccccc3-c3ccccc32)[C@@H](c2ccccc2)C=C2c3cc(OC)c(OC)cc3CCN21
photoluminescence quantum yield (in ClCCl): 0.00354

COc1ccc(-c2nc(-c3ccccc3)c(-c3ccccc3)[nH]2)cc1
photoluminescence quantum yield (in CO): 0.18

CCN(CC)c1ccc2c(-c3ccccc3C(=O)[O-])c3ccc(=[N+](CC)CC)cc-3oc2c1
photoluminescence quantum yield (in CC#N): 0.4 | photoluminescence quantum yield (in CCO): 0.66 | photoluminescence quantum yield (in CN(C)C=O): 0.42 | photoluminescence quantum yield (in CO): 0.7 | photoluminescence quantum yield (in O): 0.36 and 0.31

COc1ccc(N2c3ccc4ccccc4c3-c3c4ccccc4cc[n+]3[B-]2(c2ccccc2)c2ccccc2)cc1
photoluminescence quantum yield (in Cc1ccccc1): 0.001

Cc1ccc(-c2nc(-c3cccc(C#N)c3)[nH]c2-c2ccc(C)cc2)cc1
photoluminescence quantum yield (in CO): 0.17

CC(C)c1cccc(C(C)C)c1N1C(=O)c2cccc3c(Oc4ccc(Cl)cc4)ccc(c23)C1=O
photoluminescence quantum yield (in ClCCl): 0.64

F[B-]1(F)Oc2ccccc2-c2nc(-c3ccccc3)c3ccccc3[n+]21
photoluminescence quantum yield (in Cc1ccccc1): 0.013

CC(C)(C)c1ccc(-c2cc3c4c(c2)CCc2cc(-c5ccc(C(C)(C)C)cc5)cc(c2-4)CC3)cc1
photoluminescence quantum yield (in C1CCCCC1): 0.61 | photoluminescence quantum yield (in C1CCOC1): 0.68 | photoluminescence quantum yield (in CC#N): 0.55 | photoluminescence quantum yield (in CCCCCC): 0.52 | photoluminescence quantum yield (in CCO): 0.48 | photoluminescence quantum yield (in CN(C)C=O): 0.66 | photoluminescence quantum yield (in CO): 0.39 | photoluminescence quantum yield (in Cc1ccccc1): 1 | photoluminescence quantum yield (in ClC(Cl)Cl): 0.53 | photoluminescence quantum yield (in ClCCl): 1

c1ccc(-c2nc(-c3ccccc3)nc(-c3ccc(-c4ccc5c(c4)C4(c6ccccc6-c6ccccc64)c4ccccc4N5c4ccccc4)cc3)n2)cc1
photoluminescence quantum yield (in c1cc(-c2cccc(-n3c4ccccc4c4ccccc43)c2)cc(-n2c3ccccc3c3ccccc32)c1): 0.82

CC(C)(C)c1ccc2c(c1)B1c3cc(C(C)(C)C)ccc3Oc3cc(-n4c5ccccc5c5c6c(c7ccccc7n6-c6ccccc6)c6c(c7ccccc7n6-c6ccccc6)c54)cc(c31)O2
photoluminescence quantum yield (in Cc1ccccc1): 0.99

CCn1c2ccccc2c2cc(C#Cc3cc(C#Cc4ccc5c(c4)c4ccccc4n5CC)nc(N4CCCCC4)n3)ccc21
photoluminescence quantum yield (in C1CCOC1): 0.21 | photoluminescence quantum yield (in CCOC(C)=O): 0.17 | photoluminescence quantum yield (in CN(C)C=O): 0.15 | photoluminescence quantum yield (in Cc1ccccc1): 0.21 | photoluminescence quantum yield (in ClCCl): 0.2

CC[N+]1(CC)CN2C(=N1)C(C(=O)O)=Cc1ccc(C)cc12
photoluminescence quantum yield (in O): 0.617

Cc1cn2cc(-c3ccc(-c4ccccc4)cc3)[n-][n+]2c1
photoluminescence quantum yield (in ClCCl): 0.27

CCC1=C(C)C2=Cc3c4ccccc4c4n3[B-](c3cc[n+](C)cc3)(Oc3ccccc3-4)[N+]2=C1C (configuration not stated)
photoluminescence quantum yield (in CO): 0.58 | photoluminescence quantum yield (in CS(C)=O): 0.63

CCOC(=O)c1c(NC(C)(C)C)oc(-c2ccc(-c3ccccc3)cc2)c1C(=O)OCC
photoluminescence quantum yield (in CC#N): 0.235

c1ccc2c(-c3cc(-c4nccs4)nc(-c4nccs4)c3)c3ccccc3cc2c1
photoluminescence quantum yield (in CC#N): 0.134 | photoluminescence quantum yield (in CCCCCC): 0.418 | photoluminescence quantum yield (in CO): 0.0206 | photoluminescence quantum yield (in ClC(Cl)Cl): 0.214

CCCCCCOc1ccc(N(c2ccc(OCCCCCC)cc2)c2ccc(-c3sc(-c4ccc(N(c5ccc(OCCCCCC)cc5)c5ccc(OCCCCCC)cc5)cc4)c4nc(-c5ccc(OC)cc5)c(-c5ccc(OC)cc5)nc34)cc2)cc1
photoluminescence quantum yield (in CN(C)C=O): 0.0287 | photoluminescence quantum yield (in ClC(Cl)Cl): 0.014

N#CC1N=c2cc3c4c(cccc4c2=NC1C#N)C(c1ccccc1)=C(c1ccccc1)O3 (configuration not stated)
photoluminescence quantum yield (in ClCCl): 0.17

CCC(=O)c1ccc2cc(N(C)C)ccc2c1
photoluminescence quantum yield (in C1CCOC1): 0.83 | photoluminescence quantum yield (in C1COCCO1): 0.61 | photoluminescence quantum yield (in CC#N): 0.94 | photoluminescence quantum yield (in CCCCCC): 0.02 | photoluminescence quantum yield (in CCCCCCC): 0.019 | photoluminescence quantum yield (in CCCCCCCCO): 0.385 | photoluminescence quantum yield (in CCO): 0.95 | photoluminescence quantum yield (in CN(C)C=O): 0.92 | photoluminescence quantum yield (in CO): 0.71 | photoluminescence quantum yield (in CS(C)=O): 0.75 | photoluminescence quantum yield (in Cc1ccccc1): 0.52 | photoluminescence quantum yield (in ClC(Cl)Cl): 0.88 | photoluminescence quantum yield (in ClCCl): 0.94

CCNc1ccc2c(c1)C(C)(C)C(=O)C=C2
photoluminescence quantum yield (in O): 0.18

CN1/C(=C/C=C(/C=C/c2sc3ccccc3[n+]2C)c2cccc(C(F)(F)F)c2)Sc2ccccc21
photoluminescence quantum yield (in CCO): 0.12 | photoluminescence quantum yield (in CO): 0.06 | photoluminescence quantum yield (in CS(C)=O): 0.24

C[Si](C)(C)c1ccc(-c2ccc(-c3ccc(-c4ccc(-c5ccc([Si](C)(C)C)cc5)cc4)c4nsnc34)cc2)cc1
photoluminescence quantum yield (in C1CCOC1): 0.84

CCCCCCN1C(=O)c2cccc3c(-c4ccc(-c5cc(-c6ccccc6)nn5-c5ccccc5)s4)ccc(c23)C1=O
photoluminescence quantum yield (in ClCCl): 0.16

O=C1c2cc(-c3ccccc3)ccc2-c2ccc(-c3ccccc3)cc21
photoluminescence quantum yield (in C1CCOC1): 0.01

CC1=CC(C)=[N+]2C1=C(c1ccc(I)cc1)c1c(C)cc(C)n1[B-]21Oc2ccccc2O1
photoluminescence quantum yield (in ClC(Cl)Cl): 0

CC(C)[Si](C#Cc1c2cc3ccccc3cc2c(C#C[Si](C)(C)C)c2cc3ccccc3cc12)(C(C)C)C(C)C
photoluminescence quantum yield (in ClCCl): 0.13

COc1cc2sc3nc(-c4ccccc4OC)sc3c2cc1OC
photoluminescence quantum yield (in CS(C)=O): 0.76

c1cc2ccc1-c1ccc(cc1)-c1sc(c3c1OCCO3)-c1ccc(cc1)-c1ccc(cc1)-c1sc(c3c1OCCO3)-c1ccc(cc1)-c1ccc(cc1)-c1sc-2c2c1OCCO2
photoluminescence quantum yield (in C1CCOC1): 0.34

COc1ccc(C2=[N+]3C(=Nc4c(C)cc(-c5ccc(OC)cc5)n4[B-]3(F)F)C(C)=C2)cc1
photoluminescence quantum yield (in CS(C)=O): 0.44

COC(=O)c1c(NC(C)(C)C)oc(-c2ccc(-c3ccccc3)cc2)c1C(=O)OC
photoluminescence quantum yield (in CC#N): 0.14

CCn1c2cc(-c3ccc(-c4cccs4)s3)ccc2c2ccc(-c3ccc(-c4cccs4)s3)cc21
photoluminescence quantum yield (in ClCCl): 0.482

c1csc(-n2c3ccccc3c3ccccc32)c1
photoluminescence quantum yield (in ClCCl): 0.014

CC(C)(C)NC(=O)c1cccc2ccc3c4ccc(F)cc4c4cc(F)ccc4c3c12
photoluminescence quantum yield (in ClCCl): 0.05

O=c1oc2ccccc2cc1-c1ccc(-c2ccc(-c3cc4ccccc4oc3=O)cc2)cc1
photoluminescence quantum yield (in ClCCl): 0.49

Cc1ccc(C2=C3C=CC(/C=C/c4ccccc4)=[N+]3[B-](F)(F)n3c(Cl)ccc32)cc1
photoluminescence quantum yield (in C1CCCCC1): 0.72 | photoluminescence quantum yield (in C1CCOC1): 0.56 | photoluminescence quantum yield (in C1COCCO1): 0.6 | photoluminescence quantum yield (in CCOC(C)=O): 0.57 | photoluminescence quantum yield (in CO): 0.55 | photoluminescence quantum yield (in Cc1ccccc1): 0.69 | photoluminescence quantum yield (in ClC(Cl)Cl): 0.68

F[B-]1(F)OC(c2ccc3c(c2)Cc2ccccc2-3)=CC(c2ccccc2)=[O+]1
photoluminescence quantum yield (in CC#N): 0.96

COc1ccc(C#Cc2ncc(-c3ccccc3)o2)cc1OC
photoluminescence quantum yield (in ClCCl): 0.04
